We go through 63 compounds from ChEMBL document CHEMBL5604062, “ASAP - ZIKV NS2B-NS3 protease fluorescence dose response” (2024).

As usually defined, the IC50 is the point on the concentration scale where inhibition reaches its midpoint.

Several values for one entry are separate records, joined by “and”; a condition that tells them apart may be missing. Identical values can stand only once. A value given as a limit tells only on which side of the number the result lay.

For this experiment, the target named is Nonstructural protein 3 (Zika virus, UniProt A0A024AXB9). Put plainly: Functional biochemical assay to identify treatments for viral infectious disease that targets Zika NS2B-NS3 protease. Utilizing a direct enzyme activity measurement method, reading the fluorescence intensity is used to characterize the relative potency of inhibitors as IC50. On the set-up: species or system PRVABC59.
Chain of Nonstructural protein 3 (A0A024AXB9 whole entry): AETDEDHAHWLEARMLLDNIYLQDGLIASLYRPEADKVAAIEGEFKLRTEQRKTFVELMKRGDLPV
In the case of `O=C(Nc1cc(Cl)cc(C(=O)NCCc2nnn[nH]2)c1)OCc1ccccc1`, the IC50 is greater than 99.5 µM. The same measure for `Cc1c(C(=O)Nc2cccc(-n3nn[nH]c3=O)c2)cc(C2CC2)n1C`: greater than 99.5 µM; for `NCc1cccc(N[C@H](C#CCO)c2cc(Cl)cc(NC(=O)OCc3ccccc3)c2)c1`: 17.7 µM; for `N#Cc1ccc(CN)cc1NC(=O)c1cc(Cl)cc(NC(=O)OCc2ccccc2)c1`: 18.7 µM. The same measure for `CC[C@H](Cc1nnn[nH]1)c1ccc(NC(=O)c2cc(Cl)cc(SC)c2)cc1`: greater than 99.5 µM; for `O=C(Nc1cccc(-c2nnn[nH]2)c1)c1cc(Cl)cc2[nH]ncc12`: greater than 99.5 µM. The same measure for `CCn1c(=O)c(N2CC[C@H](CO)C2)nc2ccc(C(=O)NS(C)(=O)=O)cc21`: greater than 99.5 µM; for `COCc1cc(Cl)cc(S(=O)(=O)Nc2cccc(-c3nnn[nH]3)c2)c1`: greater than 99.5 µM. `NCc1ccc2c(c1)[C@H]1OCCC[C@H]1[C@H](c1cc(Cl)cc(NC(=O)OCc3ccccc3)c1)N2` had an IC50 of 6.91 µM. `O=S(=O)(Nc1cccc(-c2nnn[nH]2)c1)c1cc(Cl)cc(-c2ccccc2)c1` returned a half-inhibitory concentration (IC50) greater than 99.5 µM. `N#Cc1cc(Cl)cc(S(=O)(=O)Nc2cccc(-c3nnn[nH]3)c2)c1` displayed an IC50 greater than 99.5 µM. The same measure for `CC(C)[C@@H]1C(=O)O[C@H]1C(=O)O`: greater than 99.5 µM.

Regarding `CC[C@H](Cc1nnn[nH]1)c1ccc(NC(=O)c2cc(Cl)cc3[nH]ncc23)cc1`, the IC50 is greater than 99.5 µM. Then `Nc1cccc(NC(=O)c2cc(Cl)cc(NC(=O)OCc3ccccc3)c2)c1`, with greater than 99.5 µM. Then `CC(C)c1nc2c(C(=O)Nc3cccc(-c4nnn[nH]4)c3)cccc2[nH]1`, with greater than 99.5 µM; and `N#Cc1cc(Cl)cc(C(=O)Nc2cccc(-n3nn[nH]c3=O)c2)c1`, with greater than 99.5 µM; and `COC(=O)c1cc(Cl)cc([C@@H]2CN(Cc3ccccc3)C[C@H]2c2cccc(CN)c2)c1`, with 47.5 µM.

For `O=S(=O)(Nc1cccc(-c2nnn[nH]2)c1)c1cc(Cl)cc2c1OCC2`, the IC50 is greater than 99.5 µM. The same measure for `Cn1nnnc1-c1cccc(NC(=O)c2cc(Cl)cc(NC(=O)OCc3ccccc3)c2)c1`: greater than 99.5 µM; for `O=C1Cc2cc(NC(=O)c3cc(Cl)cc(NC(=O)OCc4ccccc4)c3)ccc2N1`: greater than 99.5 µM; for `Nc1nc2ccc(NC(=O)c3cc(Cl)cc(NC(=O)OCc4ccccc4)c3)cc2[nH]1`: greater than 99.5 µM. Then `CCNC(=O)Nc1cc(Cl)cc(C(=O)Nc2ccc([C@H](CC)Cc3nnn[nH]3)cc2)c1`, with greater than 99.5 µM. The same measure for `CNC(=O)[C@H](Nc1cccc(N)n1)c1cc(Cl)cc(CNC(=O)OC(C)(C)C)c1`: greater than 99.5 µM. `O=C(Nc1cc(Cl)cc(C(=O)Nc2cc(Br)cc(-c3nnn[nH]3)c2)c1)OCc1ccccc1`: 7.24 µM corresponded to half-maximal inhibition (IC50). Then `Nc1cccc(NC(=O)c2cc(Cl)cc(NC(=O)OCc3ccccc3)c2)n1`, with greater than 99.5 µM. Then `COC(=O)c1cc(NC(=O)c2cc(Cl)cc(NC(=O)OCc3ccccc3)c2)cc(-c2nnn[nH]2)c1`, with 9.61 µM; and `N#Cc1cc(CN)cc(NC(=O)c2cc(Cl)cc(NC(=O)OCc3ccccc3)c2)c1`, with 10.7 µM; and `O=S(=O)(Nc1cccc(-c2nnn[nH]2)c1)c1cc(Cl)cc(C(F)(F)F)c1`, with greater than 99.5 µM. Then `CC[C@H](Cc1nn[nH]n1)c1ccc(N[C@H](C(=O)NC)c2cc(Cl)cc(NC(=O)OCc3ccccc3)c2)cc1`, with 79.1 µM; and `O=C(Nc1cc(Cl)cc(C(=O)NCCCc2nnn[nH]2)c1)OCc1ccccc1`, with greater than 99.5 µM. As to `C=CC[C@H](Nc1cccc(CN)n1)c1cc(Cl)cc(NC(=O)OCc2ccccc2)c1`, the IC50 was found to be 25.3 µM.

With `O=C(Nc1cc(Cl)cc(C(=O)NC2(c3nn[nH]n3)CCCC2)c1)OCc1ccccc1`, the IC50 is greater than 99.5 µM. The same measure for `CC(C)[C@H](NC(=O)c1cc(Cl)cc(NC(=O)OCc2ccccc2)c1)c1nn[nH]n1`: greater than 99.5 µM; for `CC[C@H](Cc1nnn[nH]1)c1ccc(NC(=O)c2cc(Cl)cc(C#N)c2)cc1`: greater than 99.5 µM; for `Cc1c(C(=O)Nc2cccc([C@@H](C)N)c2)cc(C2CC2)n1C`: greater than 99.5 µM. Consider `N#Cc1cc(Cl)cc(C(=O)Nc2cccc(-c3nnn[nH]3)c2)c1`, for which the 50% inhibitory concentration (IC50) was greater than 99.5 µM. `CC[C@H](Cc1nnn[nH]1)c1ccc(NC(=O)[C@H]2[C@H]3CCCCC[C@H]3[C@H]2NC(=O)OCc2ccccc2)cc1` had an IC50 of 52.4 µM. The compound `O=C(Nc1cccc(-n2nn[nH]c2=O)c1)c1cc(Cl)cc2c1CCC2` showed an IC50 greater than 99.5 µM. In the case of `O=C(Nc1cccc(-c2nnn[nH]2)c1)c1cc(Cl)cc(C2CC2)c1`, the IC50 is greater than 99.5 µM. The same measure for `CCNC(=O)Nc1cc(Cl)cc(C(=O)Nc2cccc(-c3nn[nH]n3)c2)c1`: greater than 99.5 µM; for `CCc1cc(C(=O)Nc2cccc(-n3nn[nH]c3=O)c2)sc1-c1ccc(Cl)cc1`: 24.7 µM; for `Cc1c(C(=O)Nc2cc(CCCN)ccn2)cc(C2CC2)n1C`: 39.9 µM. Compound `COC(=O)c1cc(CN)cc([C@@H]2C[C@H]2c2cc(Cl)cc(NC(=O)OCc3ccccc3)c2)c1` yielded an IC50 of 31.7 µM.

`Cc1ccc(-c2nnn[nH]2)cc1NC(=O)c1cc(Cl)cc(NC(=O)OCc2ccccc2)c1` had an IC50 of 58.7 µM.

For `O=C(Nc1cc(Cl)cc(C(=O)N[C@]2(c3nnn[nH]3)CCOC2)c1)OCc1ccccc1`, the IC50 was greater than 99.5 µM.

`NCc1cc(Cl)cc(C(=O)Nc2cccc(-c3nn[nH]n3)c2)c1` displayed a half-inhibitory concentration (IC50) greater than 99.5 µM. As for `O=C(Nc1cc(Cl)cc(C(=O)N[C@H](c2nn[nH]n2)C2CNC2)c1)OCc1ccccc1`, the IC50 is greater than 99.5 µM. `O=S(=O)(Nc1cccc(-c2nnn[nH]2)c1)c1cc(F)cc(Cl)c1` came in with a half-maximal inhibitory concentration (IC50) greater than 99.5 µM. The same measure for `O=C(Nc1cccc(-n2nn[nH]c2=O)c1)c1cc(Cl)cc(N2CCCC2=O)c1`: greater than 99.5 µM; for `CNC(=O)[C@H](Nc1cc(Cl)cc(NC(=O)OCc2ccccc2)c1)c1cccc(CN)c1`: 6.31 µM; for `CCOC(=O)c1[nH]c(C)c(C(=O)Nc2cccc(CN)c2)c1CC`: greater than 99.5 µM. The same measure for `CC[C@H](Cc1nnn[nH]1)c1ccc(NC(=O)c2cc(Cl)cc3c2CCC3)cc1`: greater than 99.5 µM; for `Cc1c(C(=O)Nc2ccc3c(c2)CNCCO3)cc(C2CC2)n1C`: greater than 99.5 µM. The compound `O=C(Nc1cc(Cl)cc(C(=O)Nc2ccc3c(c2)C(=O)NC3)c1)OCc1ccccc1` yielded an IC50 greater than 99.5 µM.

In the case of `CCc1cc(C(=O)Nc2cccc(-c3nnn[nH]3)c2)sc1-c1ccc(Cl)cc1`, the IC50 was 11.8 µM and 16.7 µM. Then `N[C@H]1CCc2cc(NC(=O)c3cc(Cl)cc(NC(=O)OCc4ccccc4)c3)ccc21`, with 5.75 µM; and `O=C(N[C@H]1[C@H]2CCCCC[C@H]2[C@H]1C(=O)Nc1cccc(-n2nn[nH]c2=O)c1)OCc1ccccc1`, with 63 µM; and `CC(C)[C@H]1C(=O)O[C@@H]1C(=O)O`, with greater than 99.5 µM. The same measure for `O=C(Nc1cc(Cl)cc(C(=O)Nc2ccc3c(c2)CNC3=O)c1)OCc1ccccc1`: greater than 99.5 µM; for `NCc1ccc2c(c1)[C@H](N1CCCC1=O)C[C@H](c1cc(Cl)cc(NC(=O)OCc3ccccc3)c1)N2`: 26.8 µM. Then `Cc1c(C(=O)Nc2n[nH]c3c2CNC3)cc(C2CC2)n1C`, with greater than 99.5 µM; and `CC[C@H](Cc1nnn[nH]1)c1ccc(NC(=O)c2cc(Cl)cc(Cl)c2OC)cc1`, with greater than 99.5 µM.

In turn, `CCNC(=O)Nc1cc(Cl)cc(C(=O)O)c1` had an IC50 greater than 99.5 µM.
